Test systems include A498 renal; OVCAR-8 ovarian; NCI-H23 lung; HL-60(TB) leukemia; UACC-62 melanoma; SNB-19 CNS; HCC-2998 colon; A549 NSCLC; SW-620 colon.
Assay in all cases: inhibition of tumour cell growth, NCI panel, 48 h

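Cells were grown in 96-well plates and exposed to each compound for 48 hours at five concentrations; endpoints were interpolated linearly between bracketing concentrations, or set to the highest concentration if not reached. Abbreviation: GI50, concentration required for 50% inhibition of growth. At the TGI there is no net growth.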

`C=C1C(=O)C23[C@H](O)C1CC[C@H]2[C@]12COC3(O)[C@@H](O)[C@@H]1C(C)(C)CC[C@@H]2O`: the TGI in the assay with A498 renal worked out at 22.7 µM; in the assay with OVCAR-8 ovarian it was 27.2 µM; with NCI-H23 lung it was 29.8 µM; with HL-60(TB) leukemia it was 47.3 µM; in the assay with UACC-62 melanoma, 23.6 µM; in the assay on SNB-19 CNS it was 32.7 µM. Also, the TGI with HCC-2998 colon came to 29.9 µM; with A549 NSCLC it was 44.7 µM; in the assay with SW-620 colon, 4.86 µM.
Consider `CN(C)c1ccc(/C=C(\NC(=O)c2ccccc2)c2nc3ccc4c(c3[nH]2)C(=O)c2ccccc2C4=O)cc1`, for which the TGI in the assay on A498 renal, with OVCAR-8 ovarian, with NCI-H23 lung, in the assay on UACC-62 melanoma, in the assay with SNB-19 CNS and in the assay on HCC-2998 colon was above 100 µM each time. Also, the TGI in the assay with A549 NSCLC and in the assay with SW-620 colon was above 100 µM in each case.
With `COc1cc2c(c3c1c(=O)c1ccccc1n3C)C=CC(C)(C)O2`, the TGI in the assay with OVCAR-8 ovarian, with NCI-H23 lung, in the assay with HL-60(TB) leukemia, with UACC-62 melanoma, in the assay with SNB-19 CNS and with A549 NSCLC was above 100 µM each time. The TGI in the assay with SW-620 colon is above 100 µM.
Turning to `CCOc1cccc2c1N[S@@](=O)S2`, the TGI in the assay on NCI-H23 lung, in the assay on HL-60(TB) leukemia, with UACC-62 melanoma, in the assay on SNB-19 CNS, in the assay on A549 NSCLC and in the assay on SW-620 colon was above 100 µM each time.
For the molecule `CCOc1ccc(N=C2NC(=O)C(CC(=O)Nc3ccccc3[N+](=O)[O-])S2)cc1` (centres undefined), the TGI with A498 renal, in the assay with OVCAR-8 ovarian, with NCI-H23 lung, in the assay with HL-60(TB) leukemia, in the assay on UACC-62 melanoma and with SNB-19 CNS was above 100 µM throughout. The TGI in the assay with HCC-2998 colon, with A549 NSCLC and in the assay on SW-620 colon was above 100 µM each time.
With `CC(=O)c1ccc(NC(=O)C(=O)C(C(=O)/C=C/c2ccccc2)C2OC(=O)c3ccccc32)cc1` (centres undefined), the TGI with A498 renal, in the assay on OVCAR-8 ovarian, with NCI-H23 lung, in the assay with HL-60(TB) leukemia, in the assay on UACC-62 melanoma and in the assay on SNB-19 CNS was above 100 µM in each case. Besides, the TGI with HCC-2998 colon, in the assay on A549 NSCLC and in the assay with SW-620 colon was above 100 µM each time.
Regarding `COc1ccc(/C=C2\CCC(CCN(C)C)(C3=CCCC3)C2=O)cc1` (centres undefined), the TGI in the assay on A498 renal is 34.8 µM; with OVCAR-8 ovarian it was 34.9 µM; in the assay with NCI-H23 lung, 81.3 µM; in the assay on HL-60(TB) leukemia, 36.6 µM; in the assay with UACC-62 melanoma, 30.3 µM; in the assay with SNB-19 CNS, 31.6 µM. Further, the results for the TGI with HCC-2998 colon, with A549 NSCLC and in the assay with SW-620 colon were 32.9 µM, 42.9 µM and 31 µM, respectively.
For `CCOC(=O)C1Cc2ccc3c4c(ccc(c24)C1)CC(C(=O)OCC)C3`, the TGI in the assay on A498 renal, in the assay with OVCAR-8 ovarian, in the assay on NCI-H23 lung, in the assay on HL-60(TB) leukemia, in the assay on UACC-62 melanoma and in the assay on SNB-19 CNS was above 100 µM throughout. In addition, the TGI in the assay with HCC-2998 colon, in the assay with A549 NSCLC and in the assay on SW-620 colon was above 100 µM each time.
Regarding `C[N+](C)(C)CC1CCCCC1=O` (centres undefined), the TGI was 41.1 µM in the assay on OVCAR-8 ovarian; 40.8 µM in the assay with NCI-H23 lung; 34.7 µM in the assay with HL-60(TB) leukemia; 34 µM with UACC-62 melanoma; above 100 µM in the assay on SNB-19 CNS; above 100 µM with A549 NSCLC. Moreover, the TGI with SW-620 colon is 29.7 µM.
On to `COc1ccc(O)c(C(=O)CCC(=O)O)c1`, for which the TGI in the assay with A498 renal, in the assay with OVCAR-8 ovarian, with NCI-H23 lung, in the assay on HL-60(TB) leukemia, in the assay with UACC-62 melanoma and in the assay with SNB-19 CNS was above 100 µM throughout. The TGI with HCC-2998 colon, with A549 NSCLC and in the assay with SW-620 colon was above 100 µM in each case.
As to `CN/N=C(/c1nc2ccc([N+](=O)[O-])cc2[nH]c1=O)C(O)c1ccc(C(O)/C(=N\NC)c2nc3ccc([N+](=O)[O-])cc3[nH]c2=O)cc1` (centres undefined), the TGI in the assay with A498 renal is above 100 µM; in the assay on OVCAR-8 ovarian, above 100 µM; in the assay with NCI-H23 lung, above 100 µM; in the assay with HL-60(TB) leukemia it was 53.5 µM; in the assay on UACC-62 melanoma it was above 100 µM; in the assay on SNB-19 CNS, above 100 µM. The results for the TGI in the assay with HCC-2998 colon, in the assay on A549 NSCLC and with SW-620 colon were 95.1 µM, above 100 µM and above 100 µM, respectively.
As to `C#CCN(N=O)C(=O)ON1C(=O)CCC1=O`, the TGI with A498 renal, with OVCAR-8 ovarian, with NCI-H23 lung, with HL-60(TB) leukemia, in the assay on UACC-62 melanoma and with SNB-19 CNS was above 100 µM in each case. Also, the TGI with A549 NSCLC and in the assay on SW-620 colon was above 100 µM each time.
As for `OC1=CN=COc2ccccc21`, the TGI in the assay on A498 renal, in the assay on OVCAR-8 ovarian, in the assay with NCI-H23 lung, in the assay on HL-60(TB) leukemia, in the assay with UACC-62 melanoma and in the assay on SNB-19 CNS was above 100 µM throughout. The TGI with HCC-2998 colon, in the assay with A549 NSCLC and in the assay with SW-620 colon was above 100 µM in each case.
As for `COc1cccc(-c2cc(=O)c3cc4c(cc3[nH]2)OCO4)c1`, the TGI with A498 renal is 1.45 µM; in the assay with OVCAR-8 ovarian, 0.868 µM; in the assay with HL-60(TB) leukemia, 0.896 µM; in the assay on UACC-62 melanoma, above 100 µM; in the assay on SNB-19 CNS, above 45.1 µM; in the assay with HCC-2998 colon, 0.934 µM. Besides, the TGI in the assay with A549 NSCLC and in the assay on SW-620 colon was above 100 µM each time.
As for `C=C1C(=O)O[C@H]2[C@H]1CC/C(COC(=O)NCc1ccc(Cn3c(=O)sn(CCCCC)c3=O)cc1)=C\CC[C@@]1(C)O[C@@H]21`, the GI50 is 2.91 µM with A498 renal; 2.26 µM in the assay with OVCAR-8 ovarian; 1.94 µM in the assay with NCI-H23 lung; 1.1 µM with HL-60(TB) leukemia; 1.59 µM with UACC-62 melanoma; 5.06 µM in the assay with SNB-19 CNS. The results for the GI50 with HCC-2998 colon, with A549 NSCLC and in the assay with SW-620 colon were 3.55 µM, 8.82 µM and 1.31 µM, respectively. The TGI with A498 renal was determined as 10.1 µM; with OVCAR-8 ovarian it was 5.46 µM; with NCI-H23 lung it was 4.1 µM; in the assay with HL-60(TB) leukemia it was 4.12 µM; in the assay with UACC-62 melanoma, 3.08 µM; with SNB-19 CNS it was 17.5 µM. The TGI in the assay with HCC-2998 colon was found to be 11.1 µM; in the assay on A549 NSCLC, 22.8 µM; in the assay on SW-620 colon it was 2.85 µM.

Values taken from PubChem BioAssay (NCI).
